# Experimental data taken from the supplement of paper PMC10307832.
# Legend:
# Assay in all cases: relative viability (nuclei count vs DMSO), 5 days (fraction); higher = more cells survive
# Ruxolitinib + Alpelisib = compound: N#CC[C@H](C1CCCC1)n1cc(-c2ncnc3[nH]ccc23)cn1 [Ruxolitinib] + Cc1nc(NC(=O)N2CCC[C@H]2C(N)=O)sc1-c1ccnc(C(C)(C)C(F)(F)F)c1 [Alpelisib] (partner 2 µM)
# Procedure, shortened: (§1)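 Lung cancer cell lines in 1536-well plates were dosed by pin tool the day after seeding, either with one drug alone or with a fixed anchor-drug dose plus five library-drug doses (not always all listed) in √10 steps. After 5 days, cells were fixed and their nuclei stained in one step (final 0.05% Triton X-100, 1% formaldehyde, 1 ug/ml Hoechst), then counted on 4× images. Relative viability is the nuclei count in treated wells divided by that in vehicle wells. Values are medians of duplicate plates.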
# Ruxolitinib + Crizotinib = compound: N#CC[C@H](C1CCCC1)n1cc(-c2ncnc3[nH]ccc23)cn1 [Ruxolitinib] + C[C@@H](Oc1cc(-c2cnn(C3CCNCC3)c2)cnc1N)c1c(Cl)ccc(F)c1Cl [Crizotinib] (partner 1 µM)
# Procedure, shortened: as §1
# Ruxolitinib + Foretinib = compound: N#CC[C@H](C1CCCC1)n1cc(-c2ncnc3[nH]ccc23)cn1 [Ruxolitinib] + COc1cc2c(Oc3ccc(NC(=O)C4(C(=O)Nc5ccc(F)cc5)CC4)cc3F)ccnc2cc1OCCCN1CCOCC1 [Foretinib] (partner 0.25 µM)
# Procedure, shortened: as §1
# Ruxolitinib + OSI-027 = compound: N#CC[C@H](C1CCCC1)n1cc(-c2ncnc3[nH]ccc23)cn1 [Ruxolitinib] + COc1cccc2cc(-c3nc([C@H]4CC[C@H](C(=O)O)CC4)n4ncnc(N)c34)[nH]c12 [OSI-027] (partner 0.5 µM)
# Procedure, shortened: as §1
Cell Line,relative viability (Ruxolitinib + Alpelisib; first compound 0.08 µM),relative viability (Ruxolitinib + Alpelisib; first compound 0.253 µM),relative viability (Ruxolitinib + Alpelisib; first compound 0.8 µM),relative viability (Ruxolitinib + Alpelisib; first compound 2.53 µM),relative viability (Ruxolitinib + Alpelisib; first compound 8 µM),relative viability (Ruxolitinib + Crizotinib; first compound 0.08 µM),relative viability (Ruxolitinib + Crizotinib; first compound 0.253 µM),relative viability (Ruxolitinib + Crizotinib; first compound 0.8 µM),relative viability (Ruxolitinib + Crizotinib; first compound 2.53 µM),relative viability (Ruxolitinib + Crizotinib; first compound 8 µM),relative viability (Ruxolitinib + Foretinib; first compound 0.08 µM),relative viability (Ruxolitinib + Foretinib; first compound 0.253 µM),relative viability (Ruxolitinib + Foretinib; first compound 0.8 µM),relative viability (Ruxolitinib + Foretinib; first compound 2.53 µM),relative viability (Ruxolitinib + Foretinib; first compound 8 µM),relative viability (Ruxolitinib + OSI-027; first compound 0.08 µM),relative viability (Ruxolitinib + OSI-027; first compound 0.253 µM),relative viability (Ruxolitinib + OSI-027; first compound 0.8 µM),relative viability (Ruxolitinib + OSI-027; first compound 2.53 µM),relative viability (Ruxolitinib + OSI-027; first compound 8 µM)
IA-LM,0.676,0.849,0.959,0.584,0.679,0.886,1.05,0.791,0.849,0.638,1.04,1.19,1.34,1.22,0.885,,,,,
NCI-H522,,,,,,,,,,,,,,,,0.811,0.667,0.78,0.628,0.605
NCI-H1299,1.05,1.08,1.05,0.949,0.996,0.981,0.909,0.973,0.839,0.704,1.09,1.1,1.05,0.982,0.853,,,,,
NCI-H1395,,1.27,1.21,1.02,0.892,,,,,,1.07,0.919,1.03,0.866,0.968,0.578,0.576,0.661,0.564,0.666
NCI-H1623,,,,,,,,,,,0.908,0.94,0.971,1.01,0.994,0.48,0.461,0.469,0.439,0.576
NCI-H1648,,,,,,,,,,,,,,,,,0.269,0.257,0.308,0.279
NCI-H1650,,,,,,,0.9,1.11,0.83,0.848,,1.25,1.29,1.27,1.13,,0.651,0.98,0.769,0.641
NCI-H1703,0.316,0.343,0.382,0.19,0.283,0.643,0.611,0.832,0.497,0.241,0.298,0.338,0.376,0.329,0.287,,,,,
NCI-H1792,0.652,0.687,0.651,0.515,0.714,1.01,0.893,0.946,0.753,0.85,,,,,,0.694,0.624,0.675,0.529,0.6
NCI-H1793,0.539,0.654,0.789,0.83,0.679,,,,,,0.604,0.668,0.959,0.761,0.54,0.346,0.239,0.374,0.253,0.26
NCI-H2342,,,,,,,,,,,1.07,0.936,1.17,1.07,1.11,0.557,0.564,0.674,0.585,0.736
SW 900,,,,,,,,,,,0.88,0.806,1.01,0.912,1.11,0.552,0.495,0.757,0.585,0.496
